Results reported in patent US20250325548A1, “TUMOR SUPPRESSOR P73 TRANSCRIPTIONALLY REGULATES C-FLIP TO IMPEDE ITS PRIMING OF EXTRINSIC APOPTOSIS WHILE AN EXAMPLE SWITCHER COMPOUND CB-7587351 DEGRADES C-FLIP PROTEIN” (Brown University, priority 2024, published 2025).
Where a SMILES comes first, the peptide text is derived from it. The star is where a group is joined. Cbz = O=C(OCc1ccccc1)*; CH2F = FC*

What was measured:
[1] = tested on: panel of cancer cell lines; test: CellTiter-Glo cell viability, panel of cancer cell lines versus MRC-5; format: cell-based, human; settings: cancer cells compared with normal fibroblast MRC-5 cells, 48 hr
Description: […] Cell viability was measured by CellTiter-Glo bioluminescence (Promega, catalog no. G7572), and analyzed using an IVIS imager.

[2] = tested on: c-FLIP; test: Real-time PCR of c-FLIP mRNA in cancer cells; format: cell-based, human; settings: cancer cells treated with CB-7587351, Real-time PCR
[3] = tested on: p53 target genes; test: Real-time RT-PCR of p53 target genes; format: cell-based, human; settings: SW480 cells, 3 hr, normalized to GAPDH
[4] = tested on: caspase-3/7; test: Caspase-3/7 activity assay; format: cell-based, human; settings: DLD-1 cancer cells, 36 hours
[5] = tested on: c-FLIP; test: Western blot of c-FLIP protein levels in cancer cells; format: cell-based, human
Description: (§1) Western Blot analysis: An equal amount of protein in the cell lysate was loaded in each well and electrophoresed through 4-12% SDS-PAGE then transferred to a PVDF membrane. The primary antibodies indicated in the FIGs. were incubated with the PVDF membrane after transfer in blocking buffer at 4° C. overnight. Antibody binding was detected on PVDF with appropriate IR Dye-secondary antibodies (LI-COR Biosciences, USA) by the ODYSSEY infrared imaging system or with ECL Reagent (Thermo Fisher Scientific, catalog no. 32106) chemiluminescence reaction with appropriate horseradish peroxidase (HRP)-conjugated secondary antibodies (Thermo Fisher Scientific, catalog no. no. 31460 for Goad anti-rabbit IgG and catalog no. 31430 for Goat anti-mouse IgG) by the Syngene imaging system.

[6] = tested on: p53-mutant cancer cells; test: Apoptosis by PARP cleavage and Annexin V after caspase knockdown; format: cell-based, human; settings: CB-7587351 at 10 μM
Description: Annexin V levels were measured using RealTime-Glo™ Annexin V assay kit (Promega). The bioluminescent Annexin V was analyzed using an IVIS imager.
as §1
Knockdown of gene expression by siRNA: Cells were transfected with siRNA using lipofectamine RNAiMAX (Life Technologies, catalog no. 13778075) as described in the protocol from the manufacturer.

[7] = tested on: normal cells; test: Cell viability and synergy assay with TRAIL in normal cells; format: cell-based; settings: tested doses
Description: (§2) CellTiter-Glo luminescent Cell viability assay: Cells were seeded on 96-well plates with a density of 3000 cells/well and treated with small molecule compounds as desired for 72 hours. Cell viability was measured by CellTiter-Glo bioluminescence (Promega, catalog no. G7572), and analyzed using an IVIS imager.
(§3) Statistical analysis: Statistical analyses were performed using the student's t-test or Anova with GraphPad Prism software. Statistical significance was determined by p<0.05. Combination indices were calculated using the Chou-Talalay method with CompuSyn software.

[8] = tested on: p53 targets; test: Western blot of endogenous p53 targets; format: cell-based, human
Description: as §1

[9] = tested on: cancer cells; test: Sub-G1 flow cytometric assay in cancer cells; format: cell-based, human
Description: Flow Cytometry Assay: Briefly, cells were fixed with 70% ethanol, and stained with Propidium Iodide (PI), then subjected for CytoFLEX to measure DNA content of the PI-stained cells. Cell cycle distribution was analyzed with Flowjo.

[10] = tested on: PARP; test: Western blot of cleaved PARP with TRAIL combination; format: cell-based, human; settings: cancer cells
Description: as §1

[11] = tested on: colorectal cancer cells; test: Colony formation assay; format: cell-based, human
[12] = tested on: γ-H2AX; test: γ-H2AX phosphorylation (DNA damage) in SW480 cells; format: cell-based, human
[13] = tested on: cancer cells; test: Cell viability and synergy assay with TRAIL in cancer cells; format: cell-based, human; settings: tested doses
Description: as §2, §3

[14] = tested on: p53 reporter, PG13-luc; test: PG13-luc p53-reporter bioluminescence assay; format: cell-based, human
Description: Materials and Methods; High-Throughput Screening: Functional cell-based screening for small molecules that increase p53-transcriptional activity was performed as described in the previous study using noninvasive bioluminescence imaging in human colorectal cancer cells which stably express a p53 reporter, PG13-luc. […] DMSO treatment was used as a negative control in each screened plate. Compounds that increased p53-responsive bioluminescence were selected for secondary screening.

[15] = tested on: DNA; test: DNA-intercalation test; settings: not shown
[16] = tested on: caspase-3; test: Western blot of cleaved caspase-3; format: cell-based, human; settings: cancer cells, early time points
Description: as §1

[17] = target: T1, p73 (Homo sapiens, UniProt O15350); settings: via releasing it from the inhibitory complex of mutant p53; cited from earlier work
T1 sequence (O15350 1-636): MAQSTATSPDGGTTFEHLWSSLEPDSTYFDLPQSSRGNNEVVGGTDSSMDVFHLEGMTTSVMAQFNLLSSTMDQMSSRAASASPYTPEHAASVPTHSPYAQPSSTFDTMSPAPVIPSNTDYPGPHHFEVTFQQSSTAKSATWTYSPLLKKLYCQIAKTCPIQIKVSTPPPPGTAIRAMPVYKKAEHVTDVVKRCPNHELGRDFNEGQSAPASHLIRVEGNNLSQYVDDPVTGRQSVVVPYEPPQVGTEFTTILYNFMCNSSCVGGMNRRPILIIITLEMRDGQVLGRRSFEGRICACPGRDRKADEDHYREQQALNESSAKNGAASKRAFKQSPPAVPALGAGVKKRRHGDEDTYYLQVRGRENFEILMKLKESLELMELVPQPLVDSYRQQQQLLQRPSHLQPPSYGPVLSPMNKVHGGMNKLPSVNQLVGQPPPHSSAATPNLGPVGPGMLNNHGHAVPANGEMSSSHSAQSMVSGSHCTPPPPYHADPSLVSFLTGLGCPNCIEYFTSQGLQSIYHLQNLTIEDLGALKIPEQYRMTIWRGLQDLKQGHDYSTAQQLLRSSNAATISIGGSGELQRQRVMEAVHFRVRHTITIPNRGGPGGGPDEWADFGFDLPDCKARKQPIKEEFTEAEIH

CCOc1cccc2c(C)nc(Nc3nc(=O)c4c([nH]3)CCCC4)nc12 [CB-7587351, 2-(8-Ethoxy-4-methyl-2-quinazolinylamino)-5,6,7,8-tetrahydro-4 (1H)-quinazolinone]
IC50s, cell viability [1]: much lower in cancer cells than those in normal fibroblast MRC-5 cells | c-FLIP expression at the mRNA level [2]: no significant changes | selected p53 targets at the mRNA level [3]: slight increase | caspase-3/7 activity [4]: increase | c-FLIP degradation after knockdown of CHIP or ITCH ([5]; SW480, siRNA 48 hr then CB-7587351 8 hr): could not rescue c-FLIP | p73-mediated upregulation of c-FLIP protein ([5]; SW480 cells with overexpression of p73, treatment 8 hr): reduced p73-mediated upregulation of c-FLIP protein | c-FLIP protein expression ([5]; p53-mutant and p53 wild-type cancer cells, Western blot): reduced c-FLIP protein expression | apoptosis (PARP cleavage, Annexin V) after knockdown of caspase-8 [6]: prevented apoptosis | synergy with TRAIL on cell viability [7]: not in normal cells | p21 and puma expression after knockdown of p73 ([8]; DLD-1 cells, 8 hr): blocked the activation effect | endogenous p53 targets at the protein level ([8]; p53-mutant and wild colorectal cancer cell lines, 16 hr): increased | sub-G1 content and Annexin V levels with overexpression of p73 ([9]; Ad-p73 infection, 48 hr (sub-G1), 24 hours (Annexin)): enhanced the anti-tumor effect | sub-G1 content and PARP cleavage after knockdown of p73 ([9]; DLD-1 cells, 72 hr (sub-G1), 48 h (PARP)): abrogated the effect | sub-G1 content ([9]; cancer cells, 48 hr): increase in sub-G1 content | TRAIL-induced PARP cleavage [10]: enhanced TRAIL-induced PARP cleavage | colony formation [11]: dramatically reduced | phosphorylation of γ-H2AX ([12]; SW480 cells, increased dose, early time points): No phosphorylation | genotoxicity ([12]; conclusion from γ-H2AX and DNA-intercalation): little or no genotoxicity | synergy with TRAIL on cell viability [13]: synergized with TRAIL | p53-responsive bioluminescence ([14]; SW480, DLD1, HCT116 p53-/- and HCT116, dose dependent): strongly induced | effect on PG13-luc reporter with overexpression of p73-β or wild-type p53 ([14]; adenovirus infection, then CB-7587351 16 hr): further enhanced | PG-13-luciferase reporter after siRNA targeting p73 ([14]; p53-KO cancer cells): attenuated | DNA-intercalation [15]: no DNA-intercalation was detected | cleaved caspase-3 [16]: increase

CC(C)C[C@@H](C=O)NC(=O)[C@H](CC(C)C)NC(=O)[C@H](CC(C)C)NC(=O)OCc1ccccc1 [MG132, reference compound] (Cbz-Leu-Leu-Leu-aldehyde)
c-FLIP protein under CB-7587351 plus proteasome inhibitor ([5]; cancer cells co-treated with MG132 and CB-7587351): rescued c-FLIP from the CB-7587351-induced protein degradation

CN1CCN(C(=O)/C=C/c2ccc([N+](=O)[O-])o2)CC1 [NSC59984, (E)-1-(4-Methyl-1-piperazinyl)-3-(5-nitro-2-furyl)-2-propen-1-one]
activation of p73 [17]: activate p73

O=C(CSC1=NCCS1)c1ccc(O)c(O)c1 [RETRA, 2-(4,5-Dihydro-1,3-thiazol-2-ylthio)-1-(3,4-dihydroxyphenyl)-1-ethanone]
activation of p73 [17]: activate p73

COC(=O)C[C@H](NC(=O)[C@H](C)NC(=O)[C@@H](NC(=O)OCc1ccccc1)C(C)C)C(=O)CF [z-VAD-FMK, reference compound] (Cbz-Val-Ala-Asp(OMe)-CH2F)
CB-7587351-induced apoptosis with pan-caspase inhibitor (sub-G1 assay) ([9]; SW480, HT29, HCT116 p53-/- and HCT116): blocked the effect of CB-7587351 on apoptosis
